In publication PMC7673538 (PLoS Biology, 2020):

Test system: EV-A71
Assay: microbe, parasite or virus in culture
Type: cell-based, enterovirus A71
Details: Enterovirus A, EVA71, HeLa R19, read-out: EC50 EV-A71

| SMILES | EC50 |
| --- | --- |
| COc1ccc(N(Cc2ccc(F)cc2)C(=O)c2cccs2)cc1 [Compound 5d, N-(4-Fluorobenzyl)-N-(4-methoxyphenyl)thiophene-2-carboxamide] | > 30 µM |

Test system: CV-B3
Assay: microbe, parasite or virus in culture
Type: cell-based, coxsackievirus B3
Details: not given

| SMILES | increase of antiviral activity against CV-B3 |
| --- | --- |
| COc1ccc(N(Cc2ccc(F)cc2)C(=O)c2cccs2)cc1 [Compound 5d, N-(4-Fluorobenzyl)-N-(4-methoxyphenyl)thiophene-2-carboxamide] | approximately 4 fold |

Same assay, conditions: Enterovirus B, CVB3, HeLa R19, read-out: 50% effective concentration [EC50]

| SMILES | EC50 |
| --- | --- |
| COc1ccc(N(Cc2ccc(F)cc2)C(=O)c2cccs2)cc1 [Compound 5d, N-(4-Fluorobenzyl)-N-(4-methoxyphenyl)thiophene-2-carboxamide] | 0.51 ± 0.05 µM |

Same assay, conditions: Enterovirus B, CVB3, HeLa R19, read-out: CV-B3 Exp 1 EC50

| SMILES | EC50 |
| --- | --- |
| COc1ccc(N(Cc2ccc(F)cc2)C(=O)c2cccs2)cc1 [Compound 5d, N-(4-Fluorobenzyl)-N-(4-methoxyphenyl)thiophene-2-carboxamide] | 0.47 µM |

Same assay, conditions: Enterovirus B, CVB3, HeLa R19, read-out: CV-B3 Exp2 EC50

| SMILES | EC50 |
| --- | --- |
| COc1ccc(N(Cc2ccc(F)cc2)C(=O)c2cccs2)cc1 [Compound 5d, N-(4-Fluorobenzyl)-N-(4-methoxyphenyl)thiophene-2-carboxamide] | 0.55 µM |

Same assay, conditions: Enterovirus B, CVB3, HeLa R19, read-out: Exp 1 EC50 HelaR19

| SMILES | EC50 |
| --- | --- |
| COc1ccc(N(Cc2ccc(F)cc2)C(=O)c2cccs2)cc1 [Compound 5d, N-(4-Fluorobenzyl)-N-(4-methoxyphenyl)thiophene-2-carboxamide] | 0.52 µM |

Same assay, conditions: Enterovirus B, CVB3, HeLa R19, read-out: Exp 2 EC50 HelaR19

| SMILES | EC50 |
| --- | --- |
| COc1ccc(N(Cc2ccc(F)cc2)C(=O)c2cccs2)cc1 [Compound 5d, N-(4-Fluorobenzyl)-N-(4-methoxyphenyl)thiophene-2-carboxamide] | 0.31 µM |

Test system: PV-1
Assay: microbe, parasite or virus in culture
Type: cell-based, poliovirus 1
Details: Enterovirus C, HeLa R19, read-out: EC50 PV-1

| SMILES | EC50 |
| --- | --- |
| COc1ccc(N(Cc2ccc(F)cc2)C(=O)c2cccs2)cc1 [Compound 5d, N-(4-Fluorobenzyl)-N-(4-methoxyphenyl)thiophene-2-carboxamide] | > 30 µM |

Test system: CV-A24
Assay: microbe, parasite or virus in culture
Type: cell-based, coxsackievirus A24
Details: Enterovirus C, CVA24, HeLa R19, read-out: EC50 CV-A24

| SMILES | EC50 |
| --- | --- |
| COc1ccc(N(Cc2ccc(F)cc2)C(=O)c2cccs2)cc1 [Compound 5d, N-(4-Fluorobenzyl)-N-(4-methoxyphenyl)thiophene-2-carboxamide] | > 30 µM |

Test system: EV-D68
Assay: microbe, parasite or virus in culture
Type: cell-based, enterovirus D68
Details: Enterovirus D, EVD68, HeLa R19, read-out: EC50 EV-D68

| SMILES | EC50 |
| --- | --- |
| COc1ccc(N(Cc2ccc(F)cc2)C(=O)c2cccs2)cc1 [Compound 5d, N-(4-Fluorobenzyl)-N-(4-methoxyphenyl)thiophene-2-carboxamide] | 2.82 ± 0.4 µM |

Same assay, conditions: Enterovirus D, EVD68, HeLa R19, read-out: EC50 Exp1

| SMILES | EC50 |
| --- | --- |
| COc1ccc(N(Cc2ccc(F)cc2)C(=O)c2cccs2)cc1 [Compound 5d, N-(4-Fluorobenzyl)-N-(4-methoxyphenyl)thiophene-2-carboxamide] | 2.42 µM |

Same assay, conditions: Enterovirus D, EVD68, HeLa R19, read-out: EC50 Exp2

| SMILES | EC50 |
| --- | --- |
| COc1ccc(N(Cc2ccc(F)cc2)C(=O)c2cccs2)cc1 [Compound 5d, N-(4-Fluorobenzyl)-N-(4-methoxyphenyl)thiophene-2-carboxamide] | 3.21 µM |

Test system: HRV-A2
Assay: microbe, parasite or virus in culture
Type: cell-based, human rhinovirus
Details: Human rhinovirus sp., HRVA2, HeLa R19, read-out: EC50 HRV-A2

| SMILES | EC50 |
| --- | --- |
| COc1ccc(N(Cc2ccc(F)cc2)C(=O)c2cccs2)cc1 [Compound 5d, N-(4-Fluorobenzyl)-N-(4-methoxyphenyl)thiophene-2-carboxamide] | > 30 µM |

Test system: HRV-B14
Assay: microbe, parasite or virus in culture
Type: cell-based, human rhinovirus
Details: Human rhinovirus sp., HRVB14, HeLa R19, read-out: EC50 Exp1

| SMILES | EC50 |
| --- | --- |
| COc1ccc(N(Cc2ccc(F)cc2)C(=O)c2cccs2)cc1 [Compound 5d, N-(4-Fluorobenzyl)-N-(4-methoxyphenyl)thiophene-2-carboxamide] | 9.65 µM |

Same assay, conditions: Human rhinovirus sp., HRVB14, HeLa R19, read-out: EC50 Exp2

| SMILES | EC50 |
| --- | --- |
| COc1ccc(N(Cc2ccc(F)cc2)C(=O)c2cccs2)cc1 [Compound 5d, N-(4-Fluorobenzyl)-N-(4-methoxyphenyl)thiophene-2-carboxamide] | 8.93 µM |

Same assay, conditions: Human rhinovirus sp., HRVB14, HeLa R19, read-out: EC50 HRV-B14

| SMILES | EC50 |
| --- | --- |
| COc1ccc(N(Cc2ccc(F)cc2)C(=O)c2cccs2)cc1 [Compound 5d, N-(4-Fluorobenzyl)-N-(4-methoxyphenyl)thiophene-2-carboxamide] | 9.29 ± 0.36 µM |

Test system: CV-B3
Assay: microbe, parasite or virus in culture
Type: cell-based, coxsackievirus B3
Details: Enterovirus B, CVB3, HAP1, read-out: EC50 Hap1 Average

| SMILES | EC50 |
| --- | --- |
| COc1ccc(N(Cc2ccc(F)cc2)C(=O)c2cccs2)cc1 [Compound 5d, N-(4-Fluorobenzyl)-N-(4-methoxyphenyl)thiophene-2-carboxamide] | 0.25 µM |

Same assay, conditions: Enterovirus B, CVB3, HAP1, read-out: Exp 1 EC50 Hap1

| SMILES | EC50 |
| --- | --- |
| COc1ccc(N(Cc2ccc(F)cc2)C(=O)c2cccs2)cc1 [Compound 5d, N-(4-Fluorobenzyl)-N-(4-methoxyphenyl)thiophene-2-carboxamide] | 0.17 µM |

Test system: CV-B3
Assay: microbe, parasite or virus in culture
Type: cell-based, coxsackievirus B3
Details: Enterovirus B, CVB3, BGM, read-out: EC50 BGM Average

| SMILES | EC50 |
| --- | --- |
| COc1ccc(N(Cc2ccc(F)cc2)C(=O)c2cccs2)cc1 [Compound 5d, N-(4-Fluorobenzyl)-N-(4-methoxyphenyl)thiophene-2-carboxamide] | 0.63 µM |

Same assay, conditions: Enterovirus B, CVB3, BGM, read-out: Exp 1 EC50 BGM

| SMILES | EC50 |
| --- | --- |
| COc1ccc(N(Cc2ccc(F)cc2)C(=O)c2cccs2)cc1 [Compound 5d, N-(4-Fluorobenzyl)-N-(4-methoxyphenyl)thiophene-2-carboxamide] | 0.49 µM |

Same assay, conditions: Enterovirus B, CVB3, BGM, read-out: Exp 2 EC50 BGM

| SMILES | EC50 |
| --- | --- |
| COc1ccc(N(Cc2ccc(F)cc2)C(=O)c2cccs2)cc1 [Compound 5d, N-(4-Fluorobenzyl)-N-(4-methoxyphenyl)thiophene-2-carboxamide] | 0.77 µM |

Test system: HeLa R19 cells
Assay: not given
Details: human, monkey

| SMILES | cytotoxicity (in words) |
| --- | --- |
| COc1ccc(N(Cc2ccc(F)cc2)C(=O)c2cccs2)cc1 [Compound 5d, N-(4-Fluorobenzyl)-N-(4-methoxyphenyl)thiophene-2-carboxamide] | cytotoxicity in a similar range as the parental compound 1 |

Test system: not listed separately
Assay: in vitro
Details: human, CC50 Average

| SMILES | CC50 |
| --- | --- |
| COc1ccc(N(Cc2ccc(F)cc2)C(=O)c2cccs2)cc1 [Compound 5d, N-(4-Fluorobenzyl)-N-(4-methoxyphenyl)thiophene-2-carboxamide] | > 30 µM |

Same assay, conditions: human, CC50 HelaR19 Average

| SMILES | CC50 |
| --- | --- |
| COc1ccc(N(Cc2ccc(F)cc2)C(=O)c2cccs2)cc1 [Compound 5d, N-(4-Fluorobenzyl)-N-(4-methoxyphenyl)thiophene-2-carboxamide] | 53 µM |

Same assay, conditions: human, Exp 1 CC50

| SMILES | CC50 |
| --- | --- |
| COc1ccc(N(Cc2ccc(F)cc2)C(=O)c2cccs2)cc1 [Compound 5d, N-(4-Fluorobenzyl)-N-(4-methoxyphenyl)thiophene-2-carboxamide] | > 30 µM |

Same assay, conditions: human, Exp 1 CC50 HelaR19

| SMILES | CC50 |
| --- | --- |
| COc1ccc(N(Cc2ccc(F)cc2)C(=O)c2cccs2)cc1 [Compound 5d, N-(4-Fluorobenzyl)-N-(4-methoxyphenyl)thiophene-2-carboxamide] | 52 µM |

Same assay, conditions: human, Exp2 CC50

| SMILES | CC50 |
| --- | --- |
| COc1ccc(N(Cc2ccc(F)cc2)C(=O)c2cccs2)cc1 [Compound 5d, N-(4-Fluorobenzyl)-N-(4-methoxyphenyl)thiophene-2-carboxamide] | > 30 µM |

Same assay, conditions: human, Exp 2 CC50 HelaR19

| SMILES | CC50 |
| --- | --- |
| COc1ccc(N(Cc2ccc(F)cc2)C(=O)c2cccs2)cc1 [Compound 5d, N-(4-Fluorobenzyl)-N-(4-methoxyphenyl)thiophene-2-carboxamide] | 54.1 µM |

Test system: not listed separately
Assay: in vitro
Details: human, CC50 Hap1 Average

| SMILES | CC50 |
| --- | --- |
| COc1ccc(N(Cc2ccc(F)cc2)C(=O)c2cccs2)cc1 [Compound 5d, N-(4-Fluorobenzyl)-N-(4-methoxyphenyl)thiophene-2-carboxamide] | 53.9 µM |

Same assay, conditions: human, Exp 1 CC50 Hap1

| SMILES | CC50 |
| --- | --- |
| COc1ccc(N(Cc2ccc(F)cc2)C(=O)c2cccs2)cc1 [Compound 5d, N-(4-Fluorobenzyl)-N-(4-methoxyphenyl)thiophene-2-carboxamide] | 53.9 µM |

Same assay, conditions: human, Exp 2 CC50 Hap1

| SMILES | CC50 |
| --- | --- |
| COc1ccc(N(Cc2ccc(F)cc2)C(=O)c2cccs2)cc1 [Compound 5d, N-(4-Fluorobenzyl)-N-(4-methoxyphenyl)thiophene-2-carboxamide] | 54 µM |

Test system: not listed separately
Assay: in vitro
Details: monkey, CC50

| SMILES | CC50 |
| --- | --- |
| COc1ccc(N(Cc2ccc(F)cc2)C(=O)c2cccs2)cc1 [Compound 5d, N-(4-Fluorobenzyl)-N-(4-methoxyphenyl)thiophene-2-carboxamide] | 66 ± 1.05 µM |

Same assay, conditions: monkey, CC50 BGM Average

| SMILES | CC50 |
| --- | --- |
| COc1ccc(N(Cc2ccc(F)cc2)C(=O)c2cccs2)cc1 [Compound 5d, N-(4-Fluorobenzyl)-N-(4-methoxyphenyl)thiophene-2-carboxamide] | 66 µM |

Same assay, conditions: monkey, Exp 1 CC50 BGM

| SMILES | CC50 |
| --- | --- |
| COc1ccc(N(Cc2ccc(F)cc2)C(=O)c2cccs2)cc1 [Compound 5d, N-(4-Fluorobenzyl)-N-(4-methoxyphenyl)thiophene-2-carboxamide] | 65 µM |

Same assay, conditions: monkey, Exp 2 CC50 BGM

| SMILES | CC50 |
| --- | --- |
| COc1ccc(N(Cc2ccc(F)cc2)C(=O)c2cccs2)cc1 [Compound 5d, N-(4-Fluorobenzyl)-N-(4-methoxyphenyl)thiophene-2-carboxamide] | 67.1 µM |
